Results on two compounds are retold here after ChEMBL document CHEMBL1641410, “In silico discovery of acylated flavonol monorhamnosides from Eriobotrya japonica as natural, small-molecular weight inhibitors of XIAP BIR3” (Bioorg Med Chem, 2011).

Data set [1] can be described thus: Chemical stability of the compound after 15 hrs. The class given is physicochemical.
For data set [2], the target named is E3 ubiquitin-protein ligase XIAP (Homo sapiens, UniProt P98170). Put plainly: Displacement of fluorescent SM5F peptide from XIAP linker BIR3 domain after 3 hrs by fluorescence polarization assay. In general terms: Fluorescence polarisation rises when a labelled molecule tumbles more slowly, as on binding a larger partner.
E3 ubiquitin-protein ligase XIAP, sequence (P98170 whole entry, the tested form may be a part): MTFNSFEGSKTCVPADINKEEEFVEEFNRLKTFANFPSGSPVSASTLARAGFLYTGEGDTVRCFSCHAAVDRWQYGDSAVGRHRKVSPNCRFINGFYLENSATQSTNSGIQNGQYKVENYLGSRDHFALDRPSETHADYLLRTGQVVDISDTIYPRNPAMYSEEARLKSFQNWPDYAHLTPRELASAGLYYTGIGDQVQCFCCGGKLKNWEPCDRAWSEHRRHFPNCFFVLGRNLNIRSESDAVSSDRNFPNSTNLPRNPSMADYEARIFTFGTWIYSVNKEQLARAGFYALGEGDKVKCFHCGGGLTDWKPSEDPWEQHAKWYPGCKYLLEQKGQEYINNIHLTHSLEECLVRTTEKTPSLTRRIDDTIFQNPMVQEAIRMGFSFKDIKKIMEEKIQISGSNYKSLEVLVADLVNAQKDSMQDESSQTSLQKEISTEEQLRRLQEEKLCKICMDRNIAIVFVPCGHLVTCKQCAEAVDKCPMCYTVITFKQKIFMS

As a reminder, the IC50 is the concentration that inhibits the measured activity by half. Regarding `C[C@@H]1O[C@@H](Oc2c(-c3ccc(O)cc3)oc3cc(O)cc(O)c3c2=O)[C@H](OC(=O)/C=C/c2ccc(O)cc2)[C@H](O)[C@H]1OC(=O)/C=C/c1ccc(O)cc1`, the Stability result in data set [1] was “Stable”. In addition, the IC50 in data set [2] is greater than 10.4 µM.

In data set [2], `O=c1c(O)c(-c2ccc(O)cc2)oc2cc(O)cc(O)c12` [KAEMPFEROL] registered an IC50 greater than 100 µM.
